This passage reports logD, ED50 and Ratio results from ChEMBL document CHEMBL1126165, “Preparation and evaluation of some hydrophilic phenylacetyl-piperazines as peripherally selective -opioid receptor agonists” (Bioorg Med Chem Lett, 1992).

The logD is the decadic logarithm of the distribution of all forms, ionised or not, between an organic phase and buffer at a given pH. Read a low logD as lower lipophilicity. The term ED50 denotes the dose that gives a 50% effect, or the effect in half of the subjects. Read a high ED50 as weaker potency.

Data set [1] can be described thus: Lipophilicity was expressed as Log D. The note with it: octanol/water.
The subject of data set [2] is Mus musculus. Briefly: Tested in vivo for antinociceptive activity using the mouse acetylcholine induced abdominal constriction test by intracerebroventricular (i.c.v.) administration. It is filed as functional. The note with it: Abdomen, central.
The nature of data set [3]: Ratio of antinociceptive activity measured using mouse acetylcholine induced abdominal constriction test by s.c. administration to that done by i.c.v. The format is functional, Abdomen.
Data set [4] relates to Mus musculus. Briefly: Tested in vivo for antinociceptive activity using the mouse acetylcholine induced abdominal constriction test by subcutaneous (s.c.) administration. The format is functional. As to conditions: Abdomen, sc.

Each structure is given as a SMILES string.

Consider `CC(=O)N1CCN(C(=O)Cc2cc(F)cc(F)c2)C(CN2CC[C@H](O)C2)C1` (some centres not stated), for which the logD in data set [1] came to 0.3. The ED50 with Mus musculus [2] was determined as 0.006 mg/kg; in the data set with Mus musculus [4], 2.5 mg/kg. For the same molecule, the Ratio in data set [3] is reported as 417.

Consider `COc1ccc(CC(=O)N2CCN(C(C)=O)CC2CN2CC[C@H](O)C2)cc1` (some centres not stated), for which the logD in data set [1] is -0.1.

For `CC(=O)N1CCN(C(=O)Cc2cccc([N+](=O)[O-])c2)C(CN2CC[C@H](O)C2)C1` (some centres not stated), the 50% effective dose (ED50) with Mus musculus [2] was determined as 0.006 mg/kg; in the data set on Mus musculus [4], 0.74 mg/kg.

Consider `CC(=O)N1CCN(C(=O)Cc2ccccc2)C(CN2CC[C@H](O)C2)C1` (some centres not stated), for which the logD in data set [1] is -0.1.

In data set [1], `CC(=O)N1CCN(C(=O)Cc2ccc(C(F)(F)F)cc2)C(CN2CC[C@H](O)C2)C1` (some centres not stated) gave a logD of 1. The results for the 50% effective dose (ED50) with Mus musculus [2] and in the data set on Mus musculus [4] were 0.008 mg/kg and 0.76 mg/kg, respectively. The Ratio in data set [3] is given as 95.

Consider `CC(=O)N1CCN(C(=O)Cc2ccc([S+](C)[O-])cc2)C(CN2CC[C@H](O)C2)C1` (some centres not stated), for which the logD in data set [1] was < -0.5.

Turning to `COc1cccc(CC(=O)N2CCN(C(C)=O)CC2CN2CC[C@H](O)C2)c1` (some centres not stated), in data set [1], the logD came to 0.

Take `CC(=O)N1CCN(C(=O)Cc2ccc([N+](=O)[O-])cc2)C(CN2CC[C@H](O)C2)C1` (some centres not stated): in data set [1], the logD turned out to be 0. Besides, the ED50 came out at 0.024 mg/kg in the data set with Mus musculus [2] and 4.8 mg/kg with Mus musculus [4]. In addition, the Ratio in data set [3] came to 200.

On to `CSc1ccc(CC(=O)N2CCN(C(C)=O)CC2CN2CC[C@H](O)C2)cc1` (some centres not stated), for which, in data set [1], the logD was 0.6. The ED50 in the data set with Mus musculus [2] stood at 0.075 mg/kg; in the data set on Mus musculus [4] it was 1.52 mg/kg. For the same molecule, the Ratio in data set [3] amounted to 20.

`COC(=O)N1CCN(C(=O)Cc2ccc(Cl)c(Cl)c2)[C@H](CN2CCCC2)C1` registered a logD in data set [1] of 3.1. Also, the values for the ED50 in the data set on Mus musculus [2] and in the data set on Mus musculus [4] were 0.0002 mg/kg and 0.0003 mg/kg, respectively. Further, in data set [3], the Ratio turned out to be 1.5.

`CC(=O)N1CCN(C(=O)Cc2ccc(S(C)(=O)=O)cc2)C(CN2CC[C@H](O)C2)C1` (some centres not stated): the logD in data set [1] is < -0.5. For the same molecule, the ED50 was found to be 0.0008 mg/kg in the data set with Mus musculus [2] and 2.21 mg/kg with Mus musculus [4]. Also, in data set [3], the Ratio amounted to 2762.

Turning to `CC(=O)N1CCN(C(=O)Cc2ccc(Cl)c(Cl)c2)C(CN2CC[C@H](O)C2)C1` (some centres not stated), the logD in data set [1] worked out at 1.2. Besides, the ED50 in the data set on Mus musculus [2] turned out to be 0.007 mg/kg; in the data set with Mus musculus [4] it was 0.7 mg/kg. The Ratio in data set [3] was found to be 100.

Consider `CN(C(=O)Cc1ccc(Cl)c(Cl)c1)C(CN1CCCC1)c1cccc(OCC(=O)O)c1` (configuration not stated) [ICI-204448], for which, in data set [1], the logD amounted to 0.3. Besides, the values for the ED50 in the data set with Mus musculus [2] and with Mus musculus [4] were 0.13 mg/kg and 4.4 mg/kg, respectively.
